Test results: US10059688B2, “Protein tyrosine kinase modulators and methods of use” (BETTA PHARMACEUTICALS CO., LTD., priority 2013, dated 2018)
Read-outs that look alike come from different tables or passages of the source.

Assays:
[1] = tested on: H1975 (EGFR L858R/T790M) NSCLC cells; test: Cell proliferation assay (MTS cell viability); type: cell-based; conditions: for IC50: H1975 cells, 3 days of exposure, MTS; for GI50: NCI-H1975, one set of studies, read-out: GI50, proliferation of H1975 cells expressing EGFR-L858R/T790M
[2] = tested on: activated and resistant T790M forms of EGFR; EGFR WT; test: In vitro cellular assays, statements across cell lines; type: cell-based; conditions: result in words
Procedure: (§1) Effects of test compounds on in vitro proliferation were measured by MTS cell viability assay.

A431 (EGFR WT) cells = test: Cell proliferation assay (MTS cell viability); type: cell-based; conditions: 3 days of exposure
Procedure: as §1
A431 cells were maintained in DMEM (Gibco) supplemented with 10% FBS, 100 units/mL penicillin, 100 units/mL streptomycin, and 2 mM glutamine.
(§2) Prepare test compounds in each well with a final medium volume of 200 μl;
Incubate for 3 days of exposure;
(§3) Prepare reagents following the instructions in the Cell Proliferation Assay kit (Promega);
(§4) Change to serum-free medium with a final volume of 100 l/well. Prepare a set of wells with medium only for background subtraction;
(§5) Add 20 μl MTS solution containing PMS to each well (final concentration of MTS will be 0.33 mg/ml);
(§6) Incubate 1 to 4 hours at 37° C. in a humidified, 5% CO2 atmosphere.
(§7) Record absorbance at 490 nm using VICTOR™ X5 plate reader (PerkinElmer).
(§8) All experimental points were set up in three wells and all experiments were repeated at least three times.

[3] = tested on: HCC827 (EGFR Del) NSCLC cells; test: Cell proliferation assay (MTS cell viability); type: cell-based; conditions: for IC50: HCC827 cells, 3 days of exposure, MTS; for GI50: HCC827, one set of studies, read-out: GI50, proliferation of HCC827 cells expressing EGFR Del
Procedure: as §1, §2
Incubate for 3 days of exposure;
as §3, §4, §5, §6, §7, §8

ALK (h) = ALK (h) (Homo sapiens (Human), UniProt Q9UM73); test: Kinase assay, single dose inhibition (Millipore, 33P-ATP filter binding); type: biochemical; conditions: 0.1 μM test compound, 10 μM ATP; remaining activity relative to DMSO control = 100%
Chain of ALK (h) (Q9UM73 19-1620): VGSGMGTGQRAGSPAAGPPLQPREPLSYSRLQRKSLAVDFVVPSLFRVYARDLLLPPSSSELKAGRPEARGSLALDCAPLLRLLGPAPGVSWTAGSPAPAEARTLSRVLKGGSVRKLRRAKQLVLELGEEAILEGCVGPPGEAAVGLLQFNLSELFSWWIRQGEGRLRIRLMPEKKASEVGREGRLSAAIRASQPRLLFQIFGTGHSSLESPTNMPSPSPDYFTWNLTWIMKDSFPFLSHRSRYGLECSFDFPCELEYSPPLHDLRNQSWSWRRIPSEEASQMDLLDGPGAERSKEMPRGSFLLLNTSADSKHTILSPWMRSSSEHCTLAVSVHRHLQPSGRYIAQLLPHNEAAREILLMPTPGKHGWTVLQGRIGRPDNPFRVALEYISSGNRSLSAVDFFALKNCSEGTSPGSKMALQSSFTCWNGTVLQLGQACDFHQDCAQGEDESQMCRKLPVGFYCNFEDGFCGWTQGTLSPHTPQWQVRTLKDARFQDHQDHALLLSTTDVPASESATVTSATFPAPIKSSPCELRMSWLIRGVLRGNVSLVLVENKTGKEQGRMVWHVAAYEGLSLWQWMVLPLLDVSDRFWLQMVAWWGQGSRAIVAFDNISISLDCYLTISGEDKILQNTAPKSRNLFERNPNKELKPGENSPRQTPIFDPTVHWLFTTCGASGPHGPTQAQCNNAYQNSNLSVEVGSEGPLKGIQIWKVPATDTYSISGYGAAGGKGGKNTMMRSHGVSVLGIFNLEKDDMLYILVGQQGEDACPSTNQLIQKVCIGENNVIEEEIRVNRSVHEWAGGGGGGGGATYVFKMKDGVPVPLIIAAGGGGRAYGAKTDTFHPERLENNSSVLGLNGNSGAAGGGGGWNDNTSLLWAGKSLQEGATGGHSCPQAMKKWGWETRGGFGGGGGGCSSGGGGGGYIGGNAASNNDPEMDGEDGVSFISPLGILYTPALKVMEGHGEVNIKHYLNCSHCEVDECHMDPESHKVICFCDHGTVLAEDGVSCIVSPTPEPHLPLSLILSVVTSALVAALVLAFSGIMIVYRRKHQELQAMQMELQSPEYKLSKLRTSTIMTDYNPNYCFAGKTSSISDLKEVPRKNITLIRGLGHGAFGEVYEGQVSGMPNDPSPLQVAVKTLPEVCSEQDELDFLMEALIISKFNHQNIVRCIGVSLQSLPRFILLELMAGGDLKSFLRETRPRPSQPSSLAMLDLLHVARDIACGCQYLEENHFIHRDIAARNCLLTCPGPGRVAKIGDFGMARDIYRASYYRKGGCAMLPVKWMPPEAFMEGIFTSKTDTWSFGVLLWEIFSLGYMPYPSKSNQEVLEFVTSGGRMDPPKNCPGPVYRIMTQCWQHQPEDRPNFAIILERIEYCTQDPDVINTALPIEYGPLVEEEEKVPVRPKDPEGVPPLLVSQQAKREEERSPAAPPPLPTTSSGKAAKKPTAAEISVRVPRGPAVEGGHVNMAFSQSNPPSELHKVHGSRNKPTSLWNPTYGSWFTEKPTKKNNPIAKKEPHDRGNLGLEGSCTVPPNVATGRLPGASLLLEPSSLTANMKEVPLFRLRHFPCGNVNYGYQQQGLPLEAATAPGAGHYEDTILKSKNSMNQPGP

EGFR (T790M) (h) = EGFR (T790M) (h) (Homo sapiens (Human), UniProt P00533, T790M); test: as above; type: biochemical; conditions: 0.1 μM test compound, 10 μM ATP; remaining activity relative to DMSO control = 100%
Procedure: (§9) Assay conditions included 10 μM ATP and 100 nM test compounds.
(§10) All reactions are initiated by the addition of the MgATP mix. After incubation for 40 minutes at room temperature, the reaction is stopped by the addition of 3% phosphoric acid solution. 10 μL of the reaction is then spotted onto a P30 filtermat and washed three times for 5 minutes in 75 mM phosphoric acid and once in methanol prior to drying and scintillation counting. This assay is performed by Millipore. The experiment is carried out in duplicate. The value for the control sample (DMSO) was set to 100%, and the values for the compound-treated samples were expressed as activity relative to the control sample.

EGFR (h) = EGFR (h) (Homo sapiens (Human), UniProt P00533); test: as above; type: biochemical; conditions: 0.1 μM test compound, 10 μM ATP; remaining activity relative to DMSO control = 100%
Procedure: as §9, §10

[4] = tested on: A549 (EGFR WT) NSCLC cells; test: Cell proliferation assay (MTS cell viability); type: cell-based; conditions: for IC50: A549 cells, 3 days of exposure, MTS; for GI50: A549
Procedure: as §1
A549 cells were maintained in Ham's F12K medium (Gibco) supplemented with 10% FBS, 100 units/mL penicillin, 100 units/mL streptomycin, and 2 mM glutamine.
as §2
Incubate for 3 days of exposure;
as §3, §4, §5, §6, §7, §8

EGFR (T790M, L858R) (h) = EGFR (T790M, L858R) (h) (Homo sapiens (Human), UniProt P00533, L858R/T790M); test: Kinase assay, single dose inhibition (Millipore, 33P-ATP filter binding); type: biochemical; conditions: 0.1 μM test compound, 10 μM ATP; remaining activity relative to DMSO control = 100%
EGFR (L858R) (h) = EGFR (L858R) (h) (Homo sapiens (Human), UniProt P00533, L858R); test: as above; type: biochemical; conditions: 0.1 μM test compound, 10 μM ATP; remaining activity relative to DMSO control = 100%
[5] = tested on: Ba/F3 cells harboring EGFR T790M in conjunction with different exon 19 deletion mutations; conditions: read-out: IC50 required to inhibit the growth of Ba/F3 cells harboring EGFR T790M; cited from earlier work
[6] = Phase I trial; cited from earlier work
EGFR (ErbB1) T790M L858R = EGFR (ErbB1) T790M L858R (Homo sapiens (Human), UniProt P00533, L858R/T790M)
Procedure: (§11) 2.5 μL—4× Test Compound or 100 nL 100× plus 2.4 μL kinase buffer;
5 μL—2× Peptide/Kinase Mixture;
5 μL—Development Reagent Solution;
(§12) 60-minute Development Reaction incubation at room temperature;
(§13) Read on fluorescence plate reader and analyze the data.

EGFR (ErbB1) = EGFR (ErbB1) (Homo sapiens (Human), UniProt P00533); test: Kinase assay (IC50), fluorescence peptide assay; type: biochemical; conditions: EGFR WT; 10 pt curve, 10 μM top concentration, Km ATP
Procedure: as §11
5 μL—2× Peptide/Kinase Mixture;
5 μL—Development Reagent Solution;
as §12, §13

EGFR (ErbB1) L858R = EGFR (ErbB1) L858R (Homo sapiens (Human), UniProt P00533, L858R); test: Kinase assay (IC50), fluorescence peptide assay; conditions: read-out: IC50 EGFR (ErbB1) L858R; 10 pt curve, 1 μM top concentration, Km ATP
EGFR (ErbB1) T790M = EGFR (ErbB1) T790M (Homo sapiens (Human), UniProt P00533, T790M); test: Kinase assay (IC50), fluorescence peptide assay; type: biochemical; conditions: 10 pt curve, 1 μM top concentration, Km ATP
Procedure: as §11
5 μL—2× Peptide/Kinase Mixture;
5 μL—Development Reagent Solution;
as §12, §13

ALK = ALK (Homo sapiens (Human), UniProt Q9UM73); test: Kinase assay (IC50), fluorescence peptide assay; type: biochemical; conditions: 10 pt curve, 1 μM top concentration, Km ATP
Chain of ALK (Q9UM73 19-1620): as above
Procedure: as §11
5 μL—2× Peptide/Kinase Mixture;
5 μL—Development Reagent Solution;
as §12, §13

lung cancer patients = conditions: all lung cancer patients, not selected for EGFR mutation; cited from earlier work
[7] = tested on: patients with EGFR mutations; conditions: six prospective trials; cited from earlier work
[8] = read-out: IC50 EGFR (ErbB1) T790M L858R, 10 pt curve, 1 μM top concentration, Km ATP

| Molecule | activity against both activated and resistant T790M forms of EGFR in vitro cellular assays [2] | Activity (control) % ALK (h) (ALK (h)) [%] | Activity (control) % EGFR (T790M) (h) (EGFR (T790M) (h)) [%] | Activity (control) % EGFR (h) (EGFR (h)) [%] | IC50 ([1]; Homo sapiens, NCI-H1975, 72 h) [nM] | IC50 ([3]; Homo sapiens, 72 h) [nM] | Activity (control) % EGFR (T790M, L858R) (h) (EGFR (T790M, L858R) (h)) [%] | Activity (control) % EGFR (L858R) (h) (EGFR (L858R) (h)) [%] | IC50 ([4]; Homo sapiens, 72 h) [nM] | IC50 (A431 (EGFR WT) cells; Homo sapiens, A-431, 72 h) [nM] | also measured |
| --- | --- | --- | --- | --- | --- | --- | --- | --- | --- | --- | --- |
| N-(5-(5-chloro-4-(2-(2-(dimethylamino)-2-oxoactyl)phenylamino)pyrimidin-2-ylamino)-4-methoxy-2-(4-methylpiperazin-1-yl)phenyl)acrylamide [Example 74] | potent activity | 9 | 62 | 110 |  |  |  |  |  |  | IC50 [1]: 50 nM; IC50 (A431 (EGFR WT) cells): 50 nM; IC50 [3]: 30 nM; IC50 [4]: 620 nM |
| C=CC(=O)Nc1cc(Nc2ncc(Cl)c(Nc3ccccc3C(=O)C(=O)N(C)C)n2)c(OC)cc1F [Example 66, N-(5-(5-chloro-4-(2-(2-(dimethylamino)-2-oxoacetyl)phenylamino)pyrimidin-2-ylamino)-2-fluoro-4-methoxyphenyl)acrylamide] | potent activity | 35 | 66 | 107 | 50 | 120 | 24 | 104 | > 3000 |  |  |
| CCOc1cc2ncc(C#N)c(Nc3ccc(OCc4ccccn4)c(Cl)c3)c2cc1NC(=O)/C=C/CN(C)C [HKI-272] |  |  |  |  |  |  |  |  |  |  | IC50 [5]: 200 to 800 nM; Cmax [6]: ~200 nM |
| C=CC(=O)Nc1ccc(OC)c(Nc2ncc(Cl)c(Nc3ccccc3C(=O)C(=O)N(C)C)n2)c1 [Example 67, N-(3-(5-chloro-4-(2-(2-(dimethylamino)-2-oxoactyl)phenylamino)pyrimidin-2-ylamino)-4-methoxyphenyl)acrylamide] | potent activity | 13 | 50 | 105 | 20 | 20 | 9 | 85 | 1580 | 110 | GI50 ([1]; Homo sapiens): 20 nM; IC50 (EGFR (ErbB1) T790M L858R; [8]): 15.4 nM; IC50 (EGFR (ErbB1)): 273 nM; GI50 ([3]; Homo sapiens): 20 nM; IC50 (EGFR (ErbB1) L858R): 500 nM; IC50 (EGFR (ErbB1) T790M): 18.9 nM; IC50 (ALK): 17.3 nM; GI50 ([4]; Homo sapiens): > 1500 nM |
| C=C(CN1CCOCC1)C(=O)Nc1cccc(Nc2ncc(Cl)c(Nc3ccccc3C(=O)C(=O)N(C)C)n2)c1 [Example 112, N-(3-(5-chloro-4-(2-(2-(dimethylamino)-2-oxoacetyl)phenylamino)pyrimidin-2-ylamino)phenyl)-2-(morpholinomethyl)acrylamide] | potent activity | 21 | 14 | 85 | 10 | 30 | 1 | 66 | 40 | 100 |  |
| COc1cc(Nc2ncc(Cl)c(Nc3ccccc3C(=O)C(=O)N(C)C)n2)ccc1N1CCC(N(C)C)CC1 [Example 118, 2-(2-(5-chloro-2-(4-(4-(dimethylamino)piperidin-1-yl)-3-methoxyphenylamino)pyrimidin-4-ylamino)phenyl)-N,N-dimethyl-2-oxoacetamide] | potent activity | 3 | 18 | 82 | 10 | 20 | 2 | 29 | 1890 | 10 | GI50 ([1]; Homo sapiens): 10 nM; IC50 (EGFR (ErbB1) T790M L858R; [8]): 5.13 nM; IC50 (EGFR (ErbB1)): 77.6 nM; GI50 ([3]; Homo sapiens): 20 nM; IC50 (EGFR (ErbB1) L858R): 158 nM; IC50 (EGFR (ErbB1) T790M): 4.92 nM; IC50 (ALK): 10.8 nM; GI50 ([4]; Homo sapiens): > 1500 nM |
| C#Cc1cccc(Nc2ncnc3cc(OCCOC)c(OCCOC)cc23)c1 [erlotinib] |  |  |  |  |  |  |  |  |  |  | likelihood of tumor shrinkage (response rate) (lung cancer patients): 8-10%; median time to tumor progression (lung cancer patients): approximately 2 months; radiographic response rates [7]: 60-82% |
| COc1cc(Nc2ncc(Cl)c(Nc3ccccc3C(=O)C(=O)N(C)C)n2)ccc1N1CCN(C)CC1 [Example 61, 2-(2-(5-chloro-2-(3-methoxy-4-(4-methylpiperazin-1-yl)phenylamino)pyrimidin-4-ylamino)phenyl)-N,N-dimethyl-2-oxoacetamide] |  | 5 | 54 | 101 |  |  | 13 | 70 |  |  | IC50 (ALK): 12.2 nM |
| C#Cc1cccc(Nc2ncnc3cc4c(cc23)OCCOCCOCCO4)c1 [Icotinib, reference compound] |  |  |  |  |  |  |  |  |  |  | IC50 (EGFR (ErbB1) T790M L858R; read-out: IC50, resistant mutant EGFR L858R/T790M): ≥ 16.6 nM; IC50 (EGFR (ErbB1) T790M L858R; [8]): > 1000 nM; IC50 (EGFR (ErbB1)): 1.23 nM; IC50 (EGFR (ErbB1) L858R): 2.02 nM; IC50 (EGFR (ErbB1) T790M): > 1000 nM |
| COc1cc(N2CCN(C(C)=O)CC2)ccc1Nc1ncc(Cl)c(Nc2ccccc2C(=O)C(=O)N(C)C)n1 [Example 53, 2-(2-(2-(4-(4-acetylpiperazin-1-yl)-2-methoxyphenylamino)-5-chloropyrimidin-4-ylamino)phenyl)-N,N-dimethyl-2-oxoacetamide] |  |  | 21 | 109 | 210 | 540 | 4 | 60 | > 3000 | 50 |  |
| C=CC(=O)Nc1cc(Nc2ncc(Cl)c(Nc3ccccc3C(=O)C(=O)N(C)C)n2)ccc1OC [Example 65, N-(5-(5-chloro-4-(2-(2-(dimethylamino)-2-oxoacetyl)phenylamino)pyrimidin-2-ylamino)-2-methoxyphenyl)acrylamide] | potent activity | 19 | 80 | 118 | 20 | 120 | 25 | 102 | > 3000 |  |  |
